Measurements from patent publication US20090123391A1, “Novel Formulations” (3M INNOVATIVE PROPERTIES COMPANY, priority 2006, published 2009).

Legend:
[1] = Dose Through Unit (DTU) dose uniformity of MDI; format: physicochemical; conditions: for overall mean dose of medicament delivered through the actuator, combining beginning and end of use doses / overall mean dose delivered through the actuator, combined beginning and end of use: HFA 134a; for overall mean dose delivered through the actuator, combining beginning and end of use: Example 4: Compound A in combination with Compound D, HFA-134a MDI 100/100 μg/act, target output compound D 90 μg, compound A 90 μg; for overall mean dose delivered through the actuator, combined beginning and end of use: Example 5: Compound E in combination with Compound A, MDI 100/50 μg/act, target output Compound E 90 μg, Compound A 45 μg
Description: The dose collection apparatus (500 ml separatory funnel with a cotton plug) was assembled and the flow rate was set to 20 L/min. Test units were stored at ambient conditions for two weeks after manufacture prior to DTU testing. For the testing at the beginning of the unit, the MDIs were primed two times with a priming actuator and four times to waste with the test actuator, shaking the units between each actuation. Two test actuations were collected in the dose collection apparatus, shaking the unit between actuations. The collection apparatus was rinsed with an appropriate volume of diluent, and the rinsate with the collected dose was analyzed by conventional HPLC analysis. For end of unit testing, the MDIs were actuated an additional 48 times to waste, shaking between each actuation. The MDIs were then actuated four times to waste through a new test actuator. Two test actuations were then collected in the dose collection apparatus, shaking the unit between actuations. The collection apparatus was rinsed with an appropriate volume of diluent, and the rinsate with the collected dose was analyzed by conventional HPLC analysis.
The reported results are the average of ten units at both the beginning and end of unit use.

[2] = Andersen Cascade Impactor (ACI) fine particle fraction of MDI; format: physicochemical; conditions: for Fine Particle Fraction (FPF) expressed as percentage of 25 μg, the total dose target: Example 1: Compound A MDI, 25 μg/act; for Fine Particle Fraction (FPF) expressed as percentage of 25 μg, the total dose target / Fine Particle Fraction expressed as a percentage of the total dose target, for Compound B, 10 μg and for the Compound A, 25 μg / Fine Particle Fraction (FPF) expressed as a percentage of the total dose target, for Compound C, 12.5 μg and for Compound A, 25 μg / Fine Particle Fraction (FPF) expressed as percentage of the total dose target of Compound E, 100 μg and for Compound A, 50 μg: HFA 134a; for Fine Particle Fraction expressed as a percentage of the total dose target, for Compound B, 10 μg and for the Compound A, 25 μg: Example 2: Compound A in combination with Compound B; for Fine Particle Fraction expressed as a percentage of the total dose target, for Compound B, 10 μg and for the Compound A, 25 μg / Fine Particle Fraction (FPF) expressed as a percentage of the total dose target, for Compound C, 12.5 μg and for Compound A, 25 μg: MDI; for Fine Particle Fraction (FPF) expressed as a percentage of the total dose target, for Compound C, 12.5 μg and for Compound A, 25 μg: Example 3: Compound A in combination with Compound C, 25/12.5 μg/act; for Fine Particle Fraction (FPF) expressed as a percentage of the total dose target, for Compound D, 100 μg, and for Compound A, 100 μg: Example 4: Compound A in combination with Compound D, HFA-134a MDI 100/100 μg/act; for Fine Particle Fraction (FPF) expressed as percentage of the total dose target of Compound E, 100 μg and for Compound A, 50 μg: Example 5: Compound E in combination with Compound A, MDI 100/50 μg/act
From the text: The fine particle fraction of the aerosol formulations according to the invention may be measured by conventional techniques, for example, by cascade impaction by measuring particle size distribution. The Cascade Impactor is designed to mimic the human buccal cavity and bronchial tract and the cascade Impactor test is designed to reveal the amount of deposition of inhaled drug substance at various stages thereof. As used herein reference to the “cascade impaction” assay means determination of the deposition of the emitted dose in pressurised inhalations as defined in European Pharmacopoeia, Section 2.9.18, 5th edition “Preparations for Inhalation, Apparatus D”. Such techniques enable the “respirable fraction” of the aerosol formulations to be calculated. One method used to calculate the “respirable fraction” is by reference to “fine particle fraction” which is the amount of active ingredient collected in stages 3 to 5 (aerodynamic diameter 1.1-4.7 μm) which represents the lung, per actuation expressed as a percentage of the total amount of active ingredient delivered per actuation using the cascade impactor method described above. Earlier stages represent the aerosol device itself, the throat and the upper reaches of the bronchial tract, and the later stages representing potential systemic absorption through the wall of the lung which may cause serious side effects.
The Andersen Cascade Impactor Mark II (ACI) was assembled and the flow rate was set to 28.3 L/min. The units were primed four times with the test actuator prior to dose collection, shaking between actuations. Between 5 and 20 actuations were collected in the ACI assembly. The ACI was disassembled and the components were rinsed with an appropriate amount of solvent that ensures dissolution of all formulation ingredients. The rinsate was collected for analysis by conventional HPLC analysis.

[3] = 0.1% w/w of polymer of formula (II), 12 Week at 40° C./75% relative humidity
[4] = 0.1% w/w of polymer of formula (II), Initial
[5] = surfactant-free, 12 Week at 40° C./75% relative humidity

## C[C@@H]1C[C@H]2[C@@H]3C[C@H](F)C4=CC(=O)C=C[C@]4(C)[C@@]3(F)[C@@H](O)C[C@]2(C)[C@@]1(OC(=O)c1ccco1)C(=O)SCF [Compound A, 6α, 9α-Difluoro-17α-[(2-furanylcarbonyl)oxy]-11β-hydroxy-16α-methyl-3-oxo-androsta-1,4-diene-17β-carbothioic acid S-fluoromethyl ester]
[1]; Example 1: Compound A MDI, 25 μg/act, 0.1% w/w of polymer of formula (II), 12 Week at 40° C./75% relative humidity, target output 22.5 μg/act
  overall mean dose of medicament delivered through the actuator, combining beginning and end of use doses: 98%
[1]; Example 1: Compound A MDI, 25 μg/act, 0.1% w/w of polymer of formula (II), Initial, target output 22.5 μg/act
  overall mean dose of medicament delivered through the actuator, combining beginning and end of use doses: 98%
[1]; Example 1: Compound A MDI, 25 μg/act, surfactant-free, 12 Week at 40° C./75% relative humidity, target output 22.5 μg/act
  overall mean dose of medicament delivered through the actuator, combining beginning and end of use doses: 72%
[1]; Example 1: Compound A MDI, 25 μg/act, surfactant-free, Initial, target output 22.5 μg/act
  overall mean dose of medicament delivered through the actuator, combining beginning and end of use doses: 66%
[1]; Example 2: Compound A in combination with Compound B, MDI, 25/10 μg/act, 0.1% w/w of polymer of formula (II), 12 Week at 40° C./75% relative humidity, target output Compound B 8.5 μg, Compound A 22.5 μg
  overall mean dose of medicament delivered through the actuator, combining beginning and end of use doses: 110%
[1]; Example 2: Compound A in combination with Compound B, MDI, 25/10 μg/act, 0.1% w/w of polymer of formula (II), Initial, target output Compound B 8.5 μg, Compound A 22.5 μg
  overall mean dose of medicament delivered through the actuator, combining beginning and end of use doses: 107%
[1]; Example 2: Compound A in combination with Compound B, MDI, 25/10 μg/act, surfactant-free, 12 Week at 40° C./75% relative humidity, target output Compound B 8.5 μg, Compound A 22.5 μg
  overall mean dose of medicament delivered through the actuator, combining beginning and end of use doses: 62%
[1]; Example 2: Compound A in combination with Compound B, MDI, 25/10 μg/act, surfactant-free, Initial, target output Compound B 8.5 μg, Compound A 22.5 μg
  overall mean dose of medicament delivered through the actuator, combining beginning and end of use doses: 63%
[1]; Example 3: Compound A in combination with Compound C, MDI, 25/12.5 μg/act, 0.1% w/w polymer of formula (II), 12 Week at 40° C./75 relative humidity, target output Compound C 11.3 μg, Compound A 22.5 μg
  overall mean dose of medicament delivered through the actuator, combining beginning and end of use doses: 107%
[1]; Example 3: Compound A in combination with Compound C, MDI, 25/12.5 μg/act, 0.1% w/w polymer of formula (II), Initial, target output Compound C 11.3 μg, Compound A 22.5 μg
  overall mean dose of medicament delivered through the actuator, combining beginning and end of use doses: 101%
[1]; Example 3: Compound A in combination with Compound C, MDI, 25/12.5 μg/act, surfactant-free, 12 Week at 40° C./75 relative humidity, target output Compound C 11.3 μg, Compound A 22.5 μg
  overall mean dose of medicament delivered through the actuator, combining beginning and end of use doses: 76%
[1]; Example 3: Compound A in combination with Compound C, MDI, 25/12.5 μg/act, surfactant-free, Initial, target output Compound C 11.3 μg, Compound A 22.5 μg
  overall mean dose of medicament delivered through the actuator, combining beginning and end of use doses: 75%
[1]; [3]
  overall mean dose delivered through the actuator, combining beginning and end of use: 111%
  overall mean dose delivered through the actuator, combined beginning and end of use: 109%
[1]; [4]
  overall mean dose delivered through the actuator, combining beginning and end of use: 106%
  overall mean dose delivered through the actuator, combined beginning and end of use: 104%
[2]; [3]
  Fine Particle Fraction (FPF) expressed as percentage of 25 μg, the total dose target: 22%
  Fine Particle Fraction expressed as a percentage of the total dose target, for Compound B, 10 μg and for the Compound A, 25 μg: 35%
  Fine Particle Fraction (FPF) expressed as a percentage of the total dose target, for Compound D, 100 μg, and for Compound A, 100 μg: 19%
  Fine Particle Fraction (FPF) expressed as percentage of the total dose target of Compound E, 100 μg and for Compound A, 50 μg: 22%
[2]; [4]
  Fine Particle Fraction (FPF) expressed as percentage of 25 μg, the total dose target: 24%
  Fine Particle Fraction expressed as a percentage of the total dose target, for Compound B, 10 μg and for the Compound A, 25 μg: 32%
  Fine Particle Fraction (FPF) expressed as a percentage of the total dose target, for Compound D, 100 μg, and for Compound A, 100 μg: 21%
  Fine Particle Fraction (FPF) expressed as percentage of the total dose target of Compound E, 100 μg and for Compound A, 50 μg: 23%
[2]; [5]
  Fine Particle Fraction (FPF) expressed as percentage of 25 μg, the total dose target: 16%
  Fine Particle Fraction expressed as a percentage of the total dose target, for Compound B, 10 μg and for the Compound A, 25 μg: 18%
[2]; surfactant-free, Initial
  Fine Particle Fraction (FPF) expressed as percentage of 25 μg, the total dose target: 17%
  Fine Particle Fraction expressed as a percentage of the total dose target, for Compound B, 10 μg and for the Compound A, 25 μg: 18%
  Fine Particle Fraction (FPF) expressed as a percentage of the total dose target, for Compound C, 12.5 μg and for Compound A, 25 μg: 11%
[2]; 0.1% w/w polymer of formula (II), 12 Week 40° C./75 relative humidity
  Fine Particle Fraction (FPF) expressed as a percentage of the total dose target, for Compound C, 12.5 μg and for Compound A, 25 μg: 20%
[2]; 0.1% w/w polymer of formula (II), Initial
  Fine Particle Fraction (FPF) expressed as a percentage of the total dose target, for Compound C, 12.5 μg and for Compound A, 25 μg: 21%
[2]; surfactant-free, 12 Week 40° C./75 relative humidity
  Fine Particle Fraction (FPF) expressed as a percentage of the total dose target, for Compound C, 12.5 μg and for Compound A, 25 μg: 16%
